Test results: US9868737B2, “Pyridino[1,2-A]pyrimidone analogue used as MTOR/P13K inhibitor” (CISEN PHARMACEUTICAL CO., LTD., priority 2014, dated 2018)
Read-outs that look alike come from different tables or passages of the source.

Columns and labels:
MCF-7 cells = test: In vitro test of cell activity (MCF-7 cells, insulin stimulation, ELISA-One fluorescence); type: cell-based; conditions: Homo sapiens, MCF7, MCF-7 cells; for inhibition at 0.25 µM: conc. 0.25 μM; for inhibition at 0.5 µM: conc. 0.5 μM; for inhibition at 1 µM: conc. 1 μM
Method in brief: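 MCF-7 cells, seeded at 2.5×10^4/well in 10% FBS medium, were given compound in serum-free medium for 2 h at one concentration (screen) or a series (IC50). Insulin stimulation followed at […] final for 30 min; lysates assayed by ELISA-One sandwich immunoassay with fluorescence read-out.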

PI3K (p110α) kinase = molecular target: T1, PI3K (p110α) kinase (Homo sapiens, UniProt P42336); test: PI3K (p110α) kinase assay (PI3K HTRF Assay); type: biochemical; conditions: in vitro enzyme activity assay, 10 μM PIP2, read-out: PI3K (p110α) enzyme activity_IC50
T1 construct: made in house
Text: Conclusion: The compounds of the present invention have significant inhibitory effect on mTOR/PI3K. Example In Vitro Enzyme Activity Assay 1. The experimental procedures and methods of PI3K (p110α) kinase assay: 1) Experimental Objective
The objective was to evaluate the inhibitory effect of the subject samples on PI3K (p110α) kinase activity at molecular level.
(§1) PerkinElmer Envision 2104 Multilabel Reader.
PI 3-Kinase HTRF Assay (384 wells) was purchased from Upstate (Millipore) company: PI3K (p110α) kinase was made in our lab.
c) Experimental procedures
Each solution was prepared according to the instructions provided in the Kinase PI 3-Kinase HTRF Assay. The kinase reaction was carried out in white 384-well plates (Proxiplate-384 plus), 0.5 μl of DMSO (the concentration was consistent with the highest concentration of DMSO for the test compounds) was added to each of the two control wells with and without enzyme, and then 0.5 μl of a series of different concentrations of the test compounds was added to each well to be tested. The kinase reaction liquid (10 μM substrate PIP2, 0.5 ng PI3K (p110α)) was added to the control well containing enzyme and the test wells, while only working reaction liquid (10 μM substrate PIP2) was added to the control well without enzyme, and finally, 5 μM ATP working reaction liquid was added to activate the reaction. After the reaction was carried out at room temperature for 30 min, the stop solution was added to each well to terminate the kinase reaction. After the mixture was fully mixed, the detection liquid was added to each well and fully mixed. The plate was sealed with Parafilm and placed in the dark. After incubated overnight, the mixture was detected.
(§2) The IC50 value was calculated through the GraphPad software after plotting the relative inhibitory rate versus concentration.

mTOR kinase = molecular target: T2, mTOR kinase (Homo sapiens, UniProt P42345); test: mTOR kinase assay; type: biochemical; conditions: in vitro enzyme activity assay; ATP 100 μM; read-out: mTOR enzyme activity_IC50
T2 construct: made in house
Experimental: 2. Experimental Procedures and Methods of the mTOR Kinase Assay
The objective was to evaluate the inhibitory effect of the subject samples on the mTOR kinase activity at molecular level.
as §1
The mTOR Kinase Assay (384 wells) was purchased from PerkinElmer company; the mTOR kinase was made in our lab.
Each solution was prepared according to the instructions provided in the mTOR Kinase Assay. The kinase reaction was carried out in white 384-well plates (Proxiplate-384 plus). 2.5 μl of DMSO (the concentration was consistent with the highest concentration of DMSO for the test compounds) was added to each of the two control wells with and without enzyme, and then 2.5 μl of a series of different concentrations of the test compounds was added to each test well. ULight-4E-BP1 (Thr37/46) PeptideATP mix (the final concentration of ATP was 100 μM) and 5 μl of mTOR kinase were added to the control well containing enzyme as well as the test wells, and fully mixed. The plate was sealed with Parafilm and incubated for 2 h. Then 5 μl of stop solution was added and incubated for 5 minutes. Afterwards, 5 μl of Detection Mix (Eu-anti-phospho-4E-BP1 (Thr37/46) Antibody, the final concentration was 2 nM) was added and incubated for 1 h, and then the mixture was detected.
as §2

T1 sequence (P42336 whole entry): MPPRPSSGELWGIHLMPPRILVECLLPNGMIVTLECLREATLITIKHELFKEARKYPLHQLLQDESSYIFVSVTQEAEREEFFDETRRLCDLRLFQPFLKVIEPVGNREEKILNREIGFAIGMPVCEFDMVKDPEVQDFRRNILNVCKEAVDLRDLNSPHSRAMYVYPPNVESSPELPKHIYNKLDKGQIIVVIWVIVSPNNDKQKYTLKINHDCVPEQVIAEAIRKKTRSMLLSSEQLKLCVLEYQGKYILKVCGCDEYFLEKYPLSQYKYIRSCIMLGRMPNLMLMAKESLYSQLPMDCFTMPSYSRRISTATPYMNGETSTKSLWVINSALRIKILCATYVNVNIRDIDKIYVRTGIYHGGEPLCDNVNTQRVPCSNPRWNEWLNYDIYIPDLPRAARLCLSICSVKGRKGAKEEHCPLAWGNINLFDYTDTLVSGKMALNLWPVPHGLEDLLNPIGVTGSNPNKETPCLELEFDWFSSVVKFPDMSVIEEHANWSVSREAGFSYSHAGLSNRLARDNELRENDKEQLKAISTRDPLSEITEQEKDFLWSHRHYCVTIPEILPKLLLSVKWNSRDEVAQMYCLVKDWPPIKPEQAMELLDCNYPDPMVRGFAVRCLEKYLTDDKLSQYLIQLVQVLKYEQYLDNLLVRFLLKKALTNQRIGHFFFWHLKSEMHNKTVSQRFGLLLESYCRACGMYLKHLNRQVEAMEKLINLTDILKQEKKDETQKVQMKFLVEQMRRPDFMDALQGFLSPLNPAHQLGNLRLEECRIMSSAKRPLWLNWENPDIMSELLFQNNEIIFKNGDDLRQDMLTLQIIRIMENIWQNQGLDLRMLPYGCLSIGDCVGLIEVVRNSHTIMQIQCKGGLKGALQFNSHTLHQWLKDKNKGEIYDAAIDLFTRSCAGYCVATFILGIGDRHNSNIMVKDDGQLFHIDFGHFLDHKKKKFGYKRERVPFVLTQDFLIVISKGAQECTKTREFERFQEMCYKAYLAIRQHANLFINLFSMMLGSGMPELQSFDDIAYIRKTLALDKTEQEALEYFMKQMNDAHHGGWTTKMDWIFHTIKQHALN

Compound | inhibition at 0.25 µM (MCF-7 cells; read-out: % inhibition AKT) [%] | inhibition at 0.25 µM (MCF-7 cells; read-out: % inhibition p70s6k) [%] | IC50 (MCF-7 cells; read-out: IC50 p-AKT) [nM] | IC50 (MCF-7 cells; read-out: IC50 p-p70S6K) [nM] | IC50 (PI3K (p110α) kinase) [nM] | IC50 (mTOR kinase) [nM] | inhibition at 0.5 µM (MCF-7 cells; read-out: % inhibition AKT) [%] | inhibition at 0.5 µM (MCF-7 cells; read-out: % inhibition p70s6k) [%] | inhibition at 1 µM (MCF-7 cells; read-out: % inhibition AKT) [%] | inhibition at 1 µM (MCF-7 cells; read-out: % inhibition p70s6k) [%]
COc1ncc(-c2ccc3ncc(Cl)c(=O)n3c2)cc1NS(=O)(=O)c1sccc1Cl [compound 150] | 93.5 | 82.3 | ≤ 50 | ≤ 50 | ≤ 1 | 1 to 10 | – | – | – | –
COc1ncc(-c2ccc3ncc(C)c(=O)n3c2)cc1NS(=O)(=O)c1ccc(F)cc1Cl [compound 83] | – | – | ≤ 50 | 50 to 100 | ≤ 1 | 1 to 10 | 95 | 87.9 | – | –
COc1ncc(-c2ccc3nccc(=O)n3c2)cc1NS(=O)(=O)c1ccccc1Cl [compound 30] | – | – | ≤ 50 | 50 to 100 | ≤ 1 | 10 to 50 | – | – | 95 | 93.4
COc1ncc(-c2ccc3nccc(=O)n3c2)cc1NS(=O)(=O)c1ccc(C)cc1F [compound 28] | – | – | ≤ 50 | 50 to 100 | 1 to 10 | 10 to 50 | – | – | 96.2 | 93.9
COc1ncc(-c2ccc3ncc(Cl)c(=O)n3c2)cc1NS(=O)(=O)c1sc(C)nc1C [compound 153] | 91.6 | 83.5 | ≤ 50 | ≤ 50 | ≤ 1 | 1 to 10 | – | – | – | –
COc1ncc(-c2ccc3ncc(F)c(=O)n3c2)cc1NS(=O)(=O)c1ccc(F)cc1F [compound 61, 2,4-difluoro-N-(5-(3-fluoro-4-oxo-4H-pyrido[1,2-a]pyrimidin-7-yl)-2-methoxypyridin-3-yl)benzsulfamide] | – | – | ≤ 50 | ≤ 50 | 10 to 50 | ≤ 1 | 78.9 | 89.7 | – | –
COc1ncc(-c2ccc3ncc(Cl)c(=O)n3c2)cc1NS(=O)(=O)c1ccc(F)cc1Cl [compound 135] | – | – | ≤ 50 | 50 to 100 | ≤ 1 | 1 to 10 | 95.2 | 87.6 | – | –
COc1ncc(-c2ccc3nccc(=O)n3c2)cc1NS(=O)(=O)c1ccc(F)cc1Cl [compound 25] | – | – | ≤ 50 | 50 to 100 | 1 to 10 | 10 to 50 | – | – | 95.1 | 94.1
COc1ncc(-c2ccc3nccc(=O)n3c2)cc1NS(=O)(=O)c1ccc(Cl)s1 [compound 36] | – | – | ≤ 50 | ≤ 50 | 1 to 10 | 1 to 10 | 96.4 | 94.7 | – | –
COc1ncc(-c2ccc3ncc(Cl)c(=O)n3c2)cc1NS(=O)(=O)c1ccc(F)cc1F [compound 132, N-(5-(3-chloro-4-oxo-4H-pyrido[1,2-a]pyrimidin-7-yl)-2-methoxypyridin-3-yl)-2,4-difluorobenzsulfamide] | – | – | ≤ 50 | 100 to 250 | 1 to 10 | 1 to 10 | 93 | 88.8 | – | –
COc1ncc(-c2ccc3nccc(=O)n3c2)cc1NS(=O)(=O)c1ccc(F)cc1F [compound 1, 2,4-difluoro-N-(2-methoxy-5-(4-oxo-4H-pyrido[1,2-a]pyrimidin-7-yl)pyridin-3-yl)benzsulfamide] | – | – | ≤ 50 | 50 to 100 | 1 to 10 | 10 to 50 | – | – | 97.5 | 42.4
COc1ncc(-c2ccc3ncc(Cl)c(=O)n3c2)cc1NS(=O)(=O)c1c(Cl)cccc1Cl [compound 149] | 92 | 80.7 | ≤ 50 | ≤ 50 | 1 to 10 | 1 to 10 | – | – | – | –
COc1ncc(-c2ccc3ncc(C)c(=O)n3c2)cc1NS(=O)(=O)c1ccc(F)cc1F [compound 81, 2,4-difluoro-N-(2-methoxy-5-(3-methyl-4-oxo-4H-pyrido[1,2-a]pyrimidin-7-yl)pyridin-3-yl)benzsulfamide] | – | – | ≤ 50 | 100 to 250 | 1 to 10 | 1 to 10 | 90.1 | 85.5 | – | –
COc1ncc(-c2ccc3ncc(Cl)c(=O)n3c2)cc1NS(=O)(=O)c1ccc(Cl)s1 [compound 144] | – | – | ≤ 50 | ≤ 50 | ≤ 1 | ≤ 1 | 95.8 | 89.4 | – | –
